Reference: patent publication US6342483B1, “Method for detection and treatment of breast cancer” (Vanderbilt University, priority 1994, dated 2002)

What was measured:
[1] = tested on: human primary mammary epithelial cells; test: Growth rate of primary mammary epithelial cells incubated with antisense or sense oligonucleotide; assay type: cell-based
Source text: (§1) Unmodified 18 base deoxyribonucleotide complementary to the BRCA1 translation initiation site were synthesized and added to cultures of primary mammary epithelial cells (Stampfer et al. 1980) or MCF-7 breast cancer cells (Soule and McGrath, 1980). FIG. 12 is graph showing growth rate of human primary mammary epithelial cells (A), MCF-7 cells (B), retinal pigmented epithelial cells (C), cultured as described below. Points and bars represent the mean and the 95% confidence interval of triplicate counts of cells incubated with a single bolus of the indicated concentration of antisense or control sense deoxyribonucleotide.
Antisense oligonucleotide studies. Unmodified deoxyribonucleotide were analyzed by gel electrophoresis and UV shadowing and shown to be homogenous and of appropriate size. These oligonucleotide were purified by multiple lyophilization and solubilized in buffered media as described (Holt et al. 1988). Sequence of the unmodified antiBRCA1 oligonucleotide 5′AAG AGC AGA TAA ATC CAT 3′(SEQ ID NO: 52) and the complementary sense oligonucleotide 5′ATG GAT TTA TCT GCT CTT 3′ (SEQ ID NO:53) correspond to the presumed translation initiation site at bases […] of the GenBank sequence. The antisense oligonucleotide sequence was searched against GenBank and no significant homologies were identified to genes except BRCA1. Oligonucleotides were used according to our published methods (Holt et al. 1988). Primary mammary epithelial cells were cultured in serum-free medium supplemented with epidermal growth factor, insulin, hydrocortisone, ethanolamine, phosphorylethanolamine, and bovine pituitary extract. MCF-7 cells were cultured in Minimum Essential Medium Eagle (Modified) with Earle's salts and 2g/L sodium bicarbonate m supplemented with 2 mM L-glutamine, GMS-A (Gibco Cat. #680-1300AD), nonessential amino acids, and 2.5% fetal calf serum. Retinal pigmented perithelial cells were cultured in DMEM and 10% calf serum.

[2] = tested on: ribonucleotide reductase M2 gene; test: Northern blot and nuclear run on of ribonucleotide reductase M2 in synchronized MCF-7 cells; assay type: cell-based, human; conditions: tamoxifen 48 hours, then 1 uM estradiol
Source text: (§2) In order to critically evaluate the function of BRCA1 gene inhibition on growth stimulation and cell cycle progression it was necessary to identify a gene whose expression is cell cycle regulated in human mammary cells. […] Because ribonucleotide reductase constitutes the rate limiting step in DNA synthesis, we reasoned that it might be cell cycle regulated in a synchronous growth model such as MCF-7 cells which can be growth arrested by tamoxifen and then restimulated by estrogen (Aitken et al. 1985, Arteaga et al. 1989). MCF-7 cells were growth arrested by tamoxifen for 48 hours and then stimulated at time zero (0) with 1 uM estradiol (+E) or control vehicle (−E).
FIG. 13A is a Northern blot of mRNA from synchronized MCF-7 cells. At the indicated time in hours, total cellular RNA was isolated and Northern blotting performed using the 1.6 Kb Eco RI fragment from our cloned human ribonucleotide reductase cDNA described above. Two mRNA species of 1.6 and 3.4 Kb are observed in these studies.
Con represents cells which were grown for 48 hours but not treated with tamoxifen.

MCF-7 cells = test: Nuclear labelling with tritiated thymidine in synchronized MCF-7 cells; assay type: cell-based, human; conditions: tamoxifen 48 hours, then 1 uM estradiol
Source text: as §2

[3] = tested on: ribonucleotide reductase M2 mRNA; test: Nuclease protection assay of ribonucleotide reductase M2 mRNA after antisense treatment, MCF-7 cells; assay type: cell-based, human; conditions: 40 uM, cultured 4 days
Procedure: (§3) Antisense inhibition is a useful strategy for studying gene expression which is dependent on expression of the antisense target gene (Robinson-Benion and Holt, in press, 1995), e.g. genes whose expression is directly or indirectly dependent on BRCA1 levels. […] A nuclease protection assay of mRNA derived from primary mammary epithelial cells (lanes 1-4, 9-10) or MCF-7 cells Oanes 5-8, 11-12) cultured for 4 days with antisense or control oligonucleotide was performed under the following conditions: no oligonucleotide (lanes 1 and 5); 40 uM antiBRCA1 (lanes 2,6,10,12); 4 uM antiBRCA1 (lanes 3 and 7); 40 uM sense control (lanes 4,8,9,11). Probes for BRCA1 and GAPD are as described for FIG. 10, and the ribonucleotide reductase M2 probe (RR) detects the 200 bp probe is described above.
(§4) Nuclease Protection Assays. PCR primers were derived from BRCA1 sequence in GenBank (Accession number U14680); forward 5′CAA TTG GGC AGA TGT GT 3′ (SEQ ID NO:50) and reverse 5′CTGGGGGATCTGGGGTATCA 3′ (SEQ ID NO:51) which amplify a 113 bp region from exon 24, corresponding to bases 5587 to 5699 of the human BRCA1. This region was selected because this exon has not been reported to be differentially spliced unlike more 5′ exons. […]
(§5) Antisense oligonucleotide studies. Unmodified deoxyribonucleotide were analyzed by gel electrophoresis and UV shadowing and shown to be homogenous and of appropriate size. […]

[4] = tested on: ribonucleotide reductase M2 mRNA; test: Nuclease protection assay of ribonucleotide reductase M2 mRNA after antisense treatment, primary mammary epithelial cells; assay type: cell-based, human; conditions: 40 uM, cultured 4 days
Procedure: as §3, §4, §5

[5] = tested on: MCF-7 breast cancer cells; test: Growth rate of MCF-7 cells incubated with antisense or sense oligonucleotide; assay type: cell-based, human; conditions: 40 uM oligonucleotide, single bolus, FIG. 12B
Source text: as §1
(§6) Antisense oligonucleotide studies. Unmodified deoxyribonucleotide were analyzed by gel electrophoresis and UV shadowing and shown to be homogenous and of appropriate size. These oligonucleotide were purified by multiple lyophilization and solubilized in buffered media as described (Holt et al. 1988). Sequence of the unmodified antiBRCA1 oligonucleotide 5′AAG AGC AGA TAA ATC CAT 3′(SEQ ID NO: 52) and the complementary sense oligonucleotide 5′ATG GAT TTA TCT GCT CTT 3′ (SEQ ID NO:53) correspond to the presumed translation initiation site at bases 12-137 of the GenBank sequence. The antisense oligonucleotide sequence was searched against GenBank and no significant homologies were identified to genes except BRCA1. […]

[6] = tested on: human retinal pigmented epithelial cells; test: Growth rate of retinal pigmented epithelial cells incubated with antisense or sense oligonucleotide; assay type: cell-based; conditions: 40 uM oligonucleotide, single bolus; FIG. 12C
Source text: as §1, §6

BRCA1 mRNA = test: Nuclease protection assay of BRCA1 mRNA after antisense treatment; assay type: cell-based, human; conditions: compared with cells treated with sense control oligonucleotide; 40 uM, 4 days; lanes 9 and 10 FIG. 14 (primary mammary epithelial cells)
Procedure: as §3, §4, §5

Question: With “sense oligomer: Complementary sense control oligonucleotide with the same GC content, 5′ATG GAT TTA TCT GCT CTT 3′ (SEQ ID NO:53) (sense ATGGATTTATCTGCTCTT; further chemistry not given here) [reference compound]” as the compound, how does the “growth activation by anti-BRCA1 oligomer” value ([1]; 10 fold excess of sense oligomer added to the anti-BRCA1 oligomer, cell line not specified) read?
Answer: Its value is “reversed the growth activation”.

Question: What about the proliferation rate ([1]; control oligomer with the same GC content, cell line not specified) of the same compound?
Answer: Its proliferation rate is “did not increase the proliferation rate”.

Question: `C[C@]12CC[C@@H]3c4ccc(O)cc4CC[C@H]3[C@@H]1CC[C@@H]2O` [estrogen, estradiol] was tested. Which “transcription of the ribonucleotide reductase M2 gene” value [2] did it give?
Answer: Its value is “induced”.

Question: What about the DNA synthesis (MCF-7 cells) of the same compound?
Answer: Its DNA synthesis is “induction of synthesis”.

Question: For “anti-BRCA1 oligonucleotide: Unmodified 18 base deoxyribonucleotide complementary to the BRCA1 translation initiation site, 5′AAG AGC AGA TAA ATC CAT 3′ (SEQ ID NO: 52) (antisense AAGAGCAGATAAATCCAT; unmodified DNA)”, which “growth of normal mammary cells” value ([1]; 40 uM oligonucleotide, single bolus, FIG. 12A) is on record?
Answer: The value was “accelerated growth”.

Question: What about the “morphologic appearance of the cell lines” value ([1]; addition of antisense oligonucleotide) of the same compound?
Answer: The value was “not noticeably changed”.

Question: And the “proliferative rate of the cell lines” value ([1]; addition of antisense oligonucleotide, dose not stated)?
Answer: The value was “faster”.

Question: And the cell growth rate ([1]; intermediate dose, cell line not given)?
Answer: Its cell growth rate is “less pronounced but significant increase”.

Question: What about the “ribonucleotide reductase mRNA levels” value [3] of the same compound?
Answer: Its value is “highest”.

Question: What about the “ribonucleotide reductase mRNA levels” value [4] of the same compound?
Answer: Its value is “highest”.

Question: What about the “growth of malignant mammary cells” value [5] of the same compound?
Answer: Its value is “accelerated growth”.

Question: What about the “growth of human retinal pigmented epithelial cells” value [6] of the same compound?
Answer: Its value is “did not affect the growth”.

Question: And the “inhibition of BRCA1 mRNA levels” value (BRCA1 mRNA)?
Answer: The value was 70-90%.

Question: How did the “transcription of the ribonucleotide reductase M2 gene” value [2] turn out when `CC/C(=C(\c1ccccc1)c1ccc(OCCN(C)C)cc1)c1ccccc1` [tamoxifen] was run?
Answer: Its value is “inhibited”.

Question: What about the DNA synthesis (MCF-7 cells) of the same compound?
Answer: The DNA synthesis was “Inhibition of DNA synthesis”.
